In ChEMBL document CHEMBL4354830, “Discovery of Benzo[cd]indol-2(1H)-ones and Pyrrolo[4,3,2-de]quinolin-2(1H)-ones as Bromodomain and Extra-Terminal Domain (BET) Inhibitors with Selectivity for the First Bromodomain with Potential High Efficiency against Acute Gouty Arthritis” (J Med Chem, 2019):
pKd: −log10 of the molar value. Calls of active or inactive are those of the source. The rule behind the calls is not given here.

Key:
[1] = system: Rattus norvegicus; assay: (§1) In vivo inhibition of MSU-induced pyroptosis in Sprague-Dawley rat model of acute gout arthritis assessed as caspase-/PI- macrophage cells in synovial tissue at 1 mg/kg, ia administered 1 hr before MSU challenge and measured upto 24 hrs by PI staining based flow cytometric analysis (reference value: 63.6 %); type: functional; design: scale not given: the % may be the effect or the level left
[2] = system: Rattus norvegicus; assay: as §1, with “caspase-/PI+” for “caspase-/PI-”, “8.71” for “63.6”; type: functional; design: scale not given: the % may be the effect or the level left
[3] = species: Homo sapiens; assay: Selectivity index, ratio of IC50 for BRPF1b (unknown origin) to IC50 for recombinant human N-terminal His-tagged BRD4 BD1 (44 to 170 residues) expressed in Escherichia coli by AlphaScreen assay
[4] = Metabolic stability in dog liver microsomes assessed as intrinsic clearance measured per mg protein upto 60 mins by LC/MS-MS analysis; type: ADME, Canis lupus familiaris, Microsome; settings: read-out: CLH
[5] = molecular target: T1, Bromodomain-containing protein 4 (Homo sapiens, UniProt O60885); assay: Inhibition of BRD4 BD1 in human THP1 cells assessed as inhibition of MSU-induced ASC activation at 1 uM incubated for 1 hr followed by MSU treatment and measured after 12 hrs by immunofluorescence based confocal microscopy analysis; type: cell-based
[6] = system: Rattus norvegicus; assay: Anti-arthritic activity in Sprague-Dawley rat model of acute gout arthritis assessed as reduction in MSU-induced IL-1beta level in synovial tissue at 1 mg/kg, ia administered 1 hr before MSU challenge and measured upto 24 hrs by ELISA; type: functional, organism-based
[7] = molecular target: T1, Bromodomain-containing protein 4; assay: Binding affinity to immobilized DNA-tagged human BRD4 BD2 by BROMOscan analysis

COc1ccccc1S(=O)(=O)Nc1ccc2c3c(cc(-n4cnc(C)c4)nc13)C(=O)N2C
Activity [1]: 83.1% | Activity [2]: 15.4% | Ratio IC50 [3]: 6.5 | microsomal CLint [4]: 133 µL/min/mg | inhibition [5]: Active | inhibition [6]: Active | pKd [7]: < 4.60
